# Counter-ions that a name gives are not always drawn.
# How the values were obtained:
# Assay in all cases: In vitro antifungal activity, MIC (Method A)
# Assay type in all cases: cell-based
# [1] = system: Aspergillus fumigatus; settings: 3 days, 27° C.; for MIC: Aspergillus fumigatus, 72 h; for Antifungal activity MIC: 1×10^5 cells/ml, pH 7.0
# Protocol: (§1) The in vitro antifungal activities of representative compounds of the present invention were measured by determining the minimal inhibitory concentration (MIC), which is the concentration of an antifungal at which no fungal growth can be observed.
# (§2) The MICs were determined by the microbroth dilution procedure according to NCCLS with the following minor modifications (Galgiani et al., Antimicrob. Agents Chemother., 33, 731 (1989). The medium was solidified with 0.2% low melting point agarose and buffered to pH 7.0 with 0.25%: K2 HPO4 in Yeast Nitrogen Base (Difco Lab.). Inoculum size was 1×10^5 cells/ml, and incubation was carried out for 3 days at 27° C. The MICs ([…]) are shown in Table 1. The reference compound is compound (IA) in U.S. Pat. No. 4,952,604. The compounds used are identified by reference to the Examples in which they were prepared.
# (§3) The in vitro antifungal activities of the representative compounds of the present invention shown in Table 1 and Table 2 were measured by determining the minimal inhibitory concentrations (MIC: Method A) or 80% growth inhibition concentration (IC80 : Method B) respectively. MIC is defined as the concentration of an antifungal at which growth of fungi is not observed and IC80 is the concentration where cell turbidity measured at OD630 is reduced by 80%.
# (§4) Antifungal activities were determined by either method A or B (see below) using microtest plates according NCCLS with minor modifications (Galgiani et at., Antimicrob. Agents Chemother. 33, 731 (1989)).
# (§5) (Method A) The medium was solidified with 0.2% low melting point agarose and buffered to pH 7.0 with 0.25% K2 HPO4 in Yeast Nitrogen Base (Difco Lab.). Inoculum size was 1×10^5 cells/ml, and incubation was carried out for 3 days at 27° C. The reference compound is compound (IA) in U.S. Pat. No. 4,952,604.
# [2] = system: Candida albicans; settings: 3 days, 27° C.; for MIC: Candida albicans, 72 h; for Antifungal activity MIC: 1×10^5 cells/ml, pH 7.0
# Protocol: as §1, §2, §3, §4, §5
# [3] = system: Cryptococcus neoformans; settings: 3 days, 27° C.; for MIC: Cryptococcus neoformans, 72 h; for Antifungal activity MIC: 1×10^5 cells/ml, pH 7.0
# Protocol: as §1, §2, §3, §4, §5
# [4] = pH 7, Aspergillus fumigatus CF1003, 1×10^5 cells/ml
# [5] = pH 7, Aspergillus fumigatus CF1004, 1×10^5 cells/ml
# [6] = pH 7, Aspergillus fumigatus CF1023, 1×10^5 cells/ml
# [7] = pH 7, Candida albicans CY1002, 1×10^5 cells/ml
# [8] = pH 7, Candida albicans CY1005, 1×10^5 cells/ml
# [9] = pH 7, Candida albicans CY3003, 1×10^5 cells/ml
# [10] = pH 7, Cryptococcus neoformans CY1057, 1×10^5 cells/ml
# [11] = pH 7, Cryptococcus neoformans CY1059, 1×10^5 cells/ml
# [12] = pH 7, Cryptococcus neoformans CY1061, 1×10^5 cells/ml
"MIC [1, 4]","MIC [1, 5]","MIC [1, 6]","MIC [2, 7]","MIC [2, 8]","MIC [2, 9]","MIC [3, 10]","MIC [3, 11]","MIC [3, 12]",Compound,Antifungal activity MIC ([1]; Aspergillus fumigatus CF1003),Antifungal activity MIC ([1]; Aspergillus fumigatus CF1004),Antifungal activity MIC ([1]; Aspergillus fumigatus CF1023),Antifungal activity MIC ([2]; Candida albicans CY1002),Antifungal activity MIC ([2]; Candida albicans CY1005),Antifungal activity MIC ([2]; Candida albicans CY3003),Antifungal activity MIC ([3]; Cryptococcus neoformans CY1057),Antifungal activity MIC ([3]; Cryptococcus neoformans CY1059),Antifungal activity MIC ([3]; Cryptococcus neoformans CY1061)
100 µg/mL,200 µg/mL,100 µg/mL,100 µg/mL,100 µg/mL,100 µg/mL,1.56 µg/mL,3.13 µg/mL,6.25 µg/mL,"CCCCCCC/C=C\[C@@H]1OC[C@H](C)[C@H](OC)[C@H]1OC(=O)CN [Example 1, (2S,3R,4S,5S)-4-methoxy-5-methyl-2-[(Z)-1-nonenyl]tetrahydro-2H-pyran-3-ylglycinate trifluoro acetic acid salt]",,,,,,,,,
50 µg/mL,50 µg/mL,25 µg/mL,50 µg/mL,50 µg/mL,50 µg/mL,3.13 µg/mL,3.13 µg/mL,12.5 µg/mL,"CCCCCCC/C=C/[C@@H]1OC[C@H](C)C[C@H]1OC(=O)CN.O=C(O)C(F)(F)F [Example 28, (2S,3R,5R)-5-methyl-2-[(E)-1-nonenyl]tetrahydro-2H-pyran-3-yl glycinate trifluoroacetic acid salt]",,,,,,,,,
50 µg/mL,100 µg/mL,50 µg/mL,50 µg/mL,25 µg/mL,25 µg/mL,12.5 µg/mL,12.5 µg/mL,25 µg/mL,"CCCCCCCCC[C@@H]1OC[C@H](C)[C@H](OC)[C@@H]1OC(=O)CN.O=CO [Example 5, (2S,3R,4S,5S)-4-methoxy-5-methyl-2-nonyl-tetrahydro-2H-pyran-3-yl glycinate formic acid salt]",,,,,,,,,
25 µg/mL,25 µg/mL,25 µg/mL,50 µg/mL,25 µg/mL,25 µg/mL,25 µg/mL,50 µg/mL,50 µg/mL,"CCCCCCC/C=C/[C@@H]1OC[C@H](C)C2(OCCO2)[C@H]1OC(=O)CN.O=C(O)C(F)(F)F [Example 46, (6S,7S,10S)-10-methyl-7-[(E)-1-nonenyl]-1,4,8-trioxaspiro[4,5]decan-6-yl glycinate trifluoroacetic acid salt]",,,,,,,,,
50 µg/mL,100 µg/mL,50 µg/mL,50 µg/mL,50 µg/mL,50 µg/mL,12.5 µg/mL,12.5 µg/mL,12.5 µg/mL,"CO[C@@H]1[C@H](OC(=O)CN)[C@H](CCCC(C)CCCC(C)C)OC[C@@H]1C.O=C(O)C(F)(F)F (stereo partly drawn) [Example 8, (2S,3R,4S,5S)-2-(4,8-dimethylnonyl)-4-methoxyl-5-methyltetrahydro-2H-pyran-3-yl glycinate trifluoroacetic acid salt]",,,,,,,,,
25 µg/mL,25 µg/mL,25 µg/mL,100 µg/mL,100 µg/mL,100 µg/mL,12.5 µg/mL,12.5 µg/mL,25 µg/mL,"CCCCC/C=C/C=C/[C@@H]1OC[C@H](C)[C@H](OC)[C@H]1OC(=O)CN.O=CO [Example 47, (2S,3R,4S,5S)-4-methoxy-5-methyl-2-[(1E,3E)-1,3-nonadienyl]tetrahydro-2H-pyran-3-yl glycinate formic acid salt]",,,,,,,,,
,,,,,,,,,"(2S,3R,4S,5S)-4-methoxy-5-methyl-2-[(E)-1-nonenyl]tetra-hydro-2H-pyran-3-ylglycinate trifluoroacetic acid salt [Example 24]",50 µg/mL,25 µg/mL,50 µg/mL,50 µg/mL,100 µg/mL,50 µg/mL,25 µg/mL,25 µg/mL,50 µg/mL
50 µg/mL,100 µg/mL,50 µg/mL,100 µg/mL,100 µg/mL,50 µg/mL,6.25 µg/mL,12.5 µg/mL,12.5 µg/mL,"CCCCCCC/C=C\[C@@H]1OC[C@H](C)[C@H](OCC)[C@@H]1OC(=O)CN.O=C(O)C(F)(F)F [Example 27, (2S,3R,4S,5S)-4-ethoxy-5-methyl-2-[(Z)-1-nonenyl]tetrahydro-2H-pyran-3-yl glycinate trifluoroacetic acid salt]",,,,,,,,,
6.25 µg/mL,6.25 µg/mL,6.25 µg/mL,200 µg/mL,200 µg/mL,100 µg/mL,6.25 µg/mL,6.25 µg/mL,25 µg/mL,"CCC/C=C/C=C/C=C/[C@@H]1OC[C@H](C)[C@H](OC)[C@H]1OC(=O)CN.O=CO [Example 11, (2S,3R,4S,5S)-4-methoxy-5-methyl-2-[(1E,3E,5E)-1,3,5-nonatrienyl]tetrahydro-2H-pyran-3-yl glycinate formic acid salt]",,,,,,,,,
100 µg/mL,100 µg/mL,50 µg/mL,100 µg/mL,50 µg/mL,50 µg/mL,3.13 µg/mL,3.13 µg/mL,12.5 µg/mL,"CCCCCCC/C=C\[C@@H]1OC[C@@H](C)[C@H](OC)[C@H]1OC(=O)CN.O=C(O)C(F)(F)F [Example 42, (2S,3R,4S,5R)-4-methoxy-5-methyl-2-[(Z)-1-nonenyl]tetrahydro-2H-pyran-3-yl glycinate trifluoroacetic acid salt]",,,,,,,,,
6.25 µg/mL,12.2 µg/mL,6.25 µg/mL,25 µg/mL,12.5 µg/mL,12.5 µg/mL,0.39 µg/mL,0.78 µg/mL,3.13 µg/mL,"CCCCCCCCO[C@@H]1CCC(C)(C)[C@H](OC)[C@@H]1Cn1ccnc1 [Example 68, 1-[[(1R,2R,6R)-2-methoxy-3,3-dimethyl-6-octyloxy-cyclohexyl]methyl]-1H-imidazole]",,,,,,,,,
50 µg/mL,50 µg/mL,25 µg/mL,50 µg/mL,25 µg/mL,25 µg/mL,6.25 µg/mL,6.25 µg/mL,12.5 µg/mL,"CCCCCCCCC[C@@H]1OC[C@@H](C)[C@H](OC)[C@@H]1OC(=O)CN.O=C(O)C(F)(F)F [Example 43, (2S,3R,4S,5R)-4-methoxy-5-methyl-2-nonyltetrahydro-2H-pyran-3-yl glycinate trifluoroacetic acid salt]",,,,,,,,,
25 µg/mL,6.25 µg/mL,6.25 µg/mL,12.5 µg/mL,12.5 µg/mL,12.5 µg/mL,3.13 µg/mL,6.25 µg/mL,6.25 µg/mL,"CCCCCCCCO[C@@H]1CCC(C)(C)C[C@H]1CC(O)CN (relative stereo) [Example 84, 1-[(1S^*,2R^*)-5,5-dimethyl-2-octyloxycyclohexyl]-3-amino-2-propanol]",,,,,,,,,
25 µg/mL,12.5 µg/mL,25 µg/mL,200 µg/mL,> 200 µg/mL,> 200 µg/mL,1.56 µg/mL,3.13 µg/mL,6.25 µg/mL,"CCC/C=C/C=C/C=C\[C@@H]1OC[C@H](C)[C@H](OC)[C@H]1OC(=O)CN.O=CO [Example 12, (2S,3R,4S,5S)-4-methoxy-5-methyl-2-[(1Z,3E,5E)-1,3,5-nonatrienyl]tetrahydro-2H-pyran-3-yl glycinate formic acid salt]",,,,,,,,,
,,,,,,,,,"(2S,3R,4S,5R)-5-butoxy-4-methoxy-2-[(E)-1-nonenyl]tetra-hydro-2H-pyran-3-ylglycinate trifluoroacetic acid salt [Example 35]",25 µg/mL,25 µg/mL,25 µg/mL,25 µg/mL,25 µg/mL,50 µg/mL,3.13 µg/mL,6.25 µg/mL,12.5 µg/mL
